Laboratory results from patent US20250129093A1, “COMPOSITIONS AND METHODS RELATING TO ATP/P2X7R SIGNALING INHIBITION” (THE CHILDREN'S MEDICAL CENTER CORPORATION, priority 2022, published 2025).
“Also recorded” adds a separate entry of the source.

Legend:
[1] = test system: P2X7R signaling through eATP; assay: BzATP-stimulated CD4+ T cells from human PBMCs, expression of Th2-related factors; type: cell-based; conditions: for inhibition of activation of P2X7R signaling through eATP (expression of Th2-related factors IL-4 and IRF4): human CD4+ T cells stimulated with benzoyl ATP (BzATP)
Description: Peripheral blood mononuclear cell (PBMCs) were isolated from collected human blood samples and recovered CD4+ T cells were purified and treated with different compounds. In particular cells were activated upon stimulation with benzoyl ATP (BzATP) and treated with human P2X7R inhibitor CE-224,535, P2X7 receptor antagonist oATP and the 6 small molecules identified in the bioinformatics and HTVS approaches above.

[2] = test system: CD4+ T cells obtained from individuals carrying the P2X7R mutation; assay: Th17 generation in vitro in CD4+ T cells from individuals carrying the P2X7R mutation; type: cell-based, human; conditions: inhibitor added to the cell culture, carriers of P2X7R mutation rs3751143
Description: (§1) The P2X7R mutation rs3751143 is associated with the development of increased immunological events, particularly with the development of a HyperTh-17 syndrome, which is mainly characterized by an imbalance between T-helper cells which favors generation of Th-17 cells.

[3] = test system: P2X7R−/− mice receiving a Bm12 heart; assay: Heart allograft survival in P2X7R-/- mice receiving a Bm12 heart; type: in vivo; conditions: Bm12 heart transplant, p=0.04
Description: as §1

C57BL6 (B6) mice = assay: Survival (longevity) of C57BL6 (B6) mice; type: in vivo; conditions: 7.5 mg/Kg
Description: Given that administration of P2X7R inhibitors is associated with a slow-down of metabolic processes within activated cells/tissues (9) and the effect of eATP in favoring cell senescence, it is contemplated herein that this mechanism could be responsible for promoting longevity and prolonging survival.

[4] = test system: P2X7R signaling through eATP; conditions: cells of individuals who do not carry the P2X7R mutation; cited from earlier work

## COc1ccc(/C=N\Nc2cc(C)nc(NCc3ccccc3)n2)c(OC)c1 [Compound #5, Benzyl-{4-[N′-(2,4-dimethoxy-benzylidene)-hydrazino]-6-methyl-pyrimidin-2-yl}-amine]
[1]; PBMCs, FIG. 2, compared with CE-224,535 and oATP
  effect on the expression of Th2-related factors GATA3, IL-4 and IRF4: effect comparable to that of human P2X7R inhibitor CE-224,535 and P2X7 receptor antagonist oATP
[1]
  inhibition of activation of P2X7R signaling through eATP (expression of Th2-related factors IL-4 and IRF4): significative ability to inhibit the activation of P2X7R signaling

## OC(CNCc1ccccc1)COc1ccc(OCC(O)CNCc2ccccc2)cc1 (centres unmarked) [compound 3, 1-Benzylamino-3-[4-(3-benzylamino-2-hydroxy-propoxy)-phenoxy]-propan-2-ol]
[1]
  inhibition of activation of P2X7R signaling through eATP (expression of Th2-related factors IL-4 and IRF4): significative ability to inhibit the activation of P2X7R signaling

## Cc1ccccc1Nc1nc2nonc2nc1N/N=C\c1cccc2ccccc12 [compound 4, [6-(N′-Naphthalen-1-ylmethylene-hydrazino)-[1,2,5]oxadiazolo[3,4-b]pyrazin-5-yl]-o-tolyl-amine]
[1]
  inhibition of activation of P2X7R signaling through eATP (expression of Th2-related factors IL-4 and IRF4): significative ability to inhibit the activation of P2X7R signaling

## O=C(O)c1ccccc1-c1ccccc1C(=O)Nc1cccc(-c2nc3ccccc3[nH]2)c1 [compound 6, 2′-[3-(1H-Benzoimidazol-2-yl)-phenylcarbamoyl]-biphenyl-2-carboxylic acid]
[1]
  inhibition of activation of P2X7R signaling through eATP (expression of Th2-related factors IL-4 and IRF4): significative ability to inhibit the activation of P2X7R signaling

## Nc1ncnc2c1ncn2[C@@H](C=O)O[C@@H](C=O)COP(=O)(O)OP(=O)(O)OP(=O)(O)O [oATP]
[2]
  Th17 generation: at least partially inhibited; also recorded: partially abrogated
[3]
  allograft survival: significantly prolongs allograft survival
C57BL6 (B6) mice
  MST: 19.5 weeks
C57BL6 (B6) mice; at 17 weeks
  treated animals alive: 60%
C57BL6 (B6) mice; p=0.01, 7.5 mg/kg
  survival as compared to untreated controls: significantly prolongs survival; also recorded: increased survival
[4]
  neutralizing activation of P2X7R signaling through eATP: capable of neutralizing activation of P2X7R signaling
